Laboratory results taken from patent US6737383B1, “Herbicidal oxadiazolidines” (priority 1999, dated 2004).

Columns and labels:
cocklebur = assay: Test B pre/postemergence cocklebur; format: in vivo, Xanthium strumarium
In short: (§1)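 Herbicidal effect was estimated by eye on a ten-point control scale after plants spent twelve to sixteen days in a greenhouse following soil or foliar treatment. Foliar sprays targeted plants at one to four leaves; all doses were formulated in a non-phytotoxic solvent with surfactant.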

sugar beet = assay: Test B pre/postemergence sugar beet; format: in vivo, Beta vulgaris
In short: as §1

smallflower flatsedge = assay: Test B flood test smallflower flatsedge; format: in vivo, Cyperus difformis
In short: (§2)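 Plants were grown to the 2-leaf stage before treatment with test chemical, then held in a greenhouse for twelve to sixteen days. Injury was visually rated against untreated controls on a 0–10 scale, where 0 is no effect and 10 is complete control.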

bamyardgrass = assay: Test B flood test barnyardgrass; format: in vivo, Echinochloa crus-galli
In short: as §2

winter wheat [1] = assay: Test E winter wheat; format: in vivo, Triticum aestivum; conditions: Postemergence; for Wheat (winter) plant response rating: Rate 250 g/ha
In short: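 For postemergence, sowings are timed so plants reach the 1- to 4-leaf stage at spraying. Test compound is applied in a surfactant-containing solvent mixture that is non-phytotoxic. Response is judged by eye against untreated controls after approximately 21 to 28 days.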

blackgrass = assay: Test E blackgrass; format: in vivo, Alopecurus myosuroides; conditions: Preemergence; for Blackgrass plant response rating (0 to 100 scale): Rate 250 g/ha
green foxtail = assay: Test E green foxtail; format: in vivo, Setaria viridis; conditions: Preemergence; for Green foxtail plant response rating (0 to 100 scale): Rate 250 g/ha
Italian ryegrass = assay: Test E Italian ryegrass; format: in vivo, Lolium multiflorum; conditions: Preemergence; for I. Ryegrass plant response rating (0 to 100 scale): Rate 250 g/ha
winter wheat [2] = assay: Test E winter wheat; format: in vivo, Triticum aestivum; conditions: Preemergence; for Wheat (winter) plant response rating (0 to 100 scale): Rate 250 g/ha
wild oat = assay: Test E wild oat; format: in vivo, Avena fatua; conditions: Preemergence; for Wild oat plant response rating (0 to 100 scale): Rate 250 g/ha
winter barley = assay: Test E winter barley; format: in vivo, Hordeum vulgare; conditions: Preemergence; for Barley (winter) plant response rating (0 to 100 scale): Rate 250 g/ha
[3] = Preemergence, Rate 62 g/ha, scale of 0 to 10 where 0 is no effect and 10 is complete control
[4] = Preemergence, Rate 250 g/ha, scale of 0 to 10 where 0 is no effect and 10 is complete control
[5] = Preemergence, Rate 500 g/ha, scale of 0 to 10 where 0 is no effect and 10 is complete control
[6] = Rate 62 g/ha, Postemergence, scale 0 to 10 (0 no effect, 10 complete control)
[7] = Rate 125 g/ha, Postemergence, scale of 0 to 10 where 0 is no effect and 10 is complete control
[8] = Rate 125 g/ha, Preemergence, scale of 0 to 10 where 0 is no effect and 10 is complete control
[9] = Rate 250 g/ha, Postemergence, scale of 0 to 10 where 0 is no effect and 10 is complete control
[10] = Rate 500 g/ha, Postemergence, scale 0 to 10, 0 no effect, 10 complete control
[11] = Rate 62 g/ha, headed Pre-emergence (flood test species), scale 0 to 10 (0 no effect, 10 complete control)
[12] = Rate 125 g/ha, Pre-emergence, flood test species, scale 0 to 10 where 0 is no effect and 10 is complete control
[13] = Rate 250 g/ha, Pre-emergence, flood-test species, scale 0 to 10, 0 is no effect, 10 is complete control
[14] = Rate 500 g/ha, Pre-emergence, flood test species, scale 0 to 10 (0 no effect, 10 complete control)
[15] = Rate 125 g/ha, 0 to 100 scale, 0 is no effect, 100 is complete control
[16] = 0 to 100 scale where 0 is no effect and 100 is complete control
[17] = Rate 500 g/ha, 0 to 100 scale, 0 is no effect, 100 is complete control
[18] = Rate 125 g/ha, 0 to 100 scale (0 no effect, 100 complete control)
[19] = Rate 500 g/ha, 0 to 100 scale (0 no effect, 100 complete control)
[20] = Rate 62 g/ha, Postemergence, scale of 0 to 10 where 0 is no effect and 10 is complete control
[21] = Rate 125 g/ha, Postemergence, scale 0 to 10
[22] = Rate 500 g/ha, Postemergence, scale 0 to 10
[23] = Rate 500 g/ha, 0 to 100 scale where 0 is no effect and 100 is complete control
[24] = Rate 1000 g/ha, 0 to 100 scale, 0 no effect, 100 complete control

COCn1c(=O)on(C(=O)N(c2ccc(F)cc2)C(C)C)c1=O [Compound 293]
0: Cocklebur plant response rating (cocklebur; [3]) | Cocklebur plant response rating (cocklebur; [4]) | Plant response rating, Cocklebur (cocklebur; [5]) | Cocklebur plant response rating (cocklebur; [6]) | Cocklebur plant response rating (cocklebur; [7]) | Cocklebur plant response rating (cocklebur; [8]) | Plant response rating, Cocklebur (cocklebur; [9]) | Cocklebur plant response rating (cocklebur; [10]) | Sugarbeets plant response rating (sugar beet; [3]) | Sugarbeets plant response rating (sugar beet; [6]) | Sugarbeets plant response rating (sugar beet; [7]) | S. Flatsedge plant response rating (smallflower flatsedge; [11]) | S. Flatsedge plant response rating (smallflower flatsedge; [12]) | S. Flatsedge plant response rating (smallflower flatsedge; [13]) | S. Flatsedge plant response rating (smallflower flatsedge; [14]) | Barnyardgrass plant response rating (bamyardgrass; [11]) | Barnyardgrass plant response rating (bamyardgrass; [12]) | Barnyardgrass plant response rating (bamyardgrass; [13]) | Plant response rating, Wild oat (wild oat; [18])
10: Wild oat plant response rating (0 to 100 scale) (wild oat)
8: Plant response rating, Sugarbeets (sugar beet; [5])
40: Plant response rating, Blackgrass (blackgrass; [18]) | Plant response rating, Wheat (winter) (winter wheat [2]; [18]) | Plant response rating, Barley (winter) (winter barley; [18]) | Barley (winter) plant response rating (0 to 100 scale) (winter barley)
50: Plant response rating, Wheat (winter) (winter wheat [1]; [15]) | Plant response rating, Wheat (winter) (winter wheat [1]; [17]) | Plant response rating, Blackgrass (blackgrass; [19]) | I. Ryegrass plant response rating (0 to 100 scale) (Italian ryegrass) | Plant response rating, I. Ryegrass (Italian ryegrass; [19]) | Wheat (winter) plant response rating (0 to 100 scale) (winter wheat [2]) | Plant response rating, Wild oat (wild oat; [19]) | Plant response rating, Barley (winter) (winter barley; [19])
4: Sugarbeets plant response rating (sugar beet; [4]) | Sugarbeets plant response rating (sugar beet; [8])
3: Plant response rating, Sugarbeets (sugar beet; [9])
5: Barnyardgrass plant response rating (bamyardgrass; [14])
30: Wheat (winter) plant response rating (winter wheat [1]; [16]) | Plant response rating, I. Ryegrass (Italian ryegrass; [18])
55: Plant response rating, Green foxtail (green foxtail; [18]) | Plant response rating, Wheat (winter) (winter wheat [2]; [19])
60: Plant response rating, Green foxtail (green foxtail; [19])
70: Green foxtail plant response rating (0 to 100 scale) (green foxtail)

CC(=O)OCCCCn1c(=O)on(C(=O)N(c2ccc(F)cc2)C(C)C)c1=O [Compound 211]
8: Plant response rating, Sugarbeets (sugar beet; [5])
35: Wheat (winter) plant response rating (0 to 100 scale) (winter wheat [2])
10: Green foxtail plant response rating (0 to 100 scale) (green foxtail) | Plant response rating, I. Ryegrass (Italian ryegrass; [23]) | Plant response rating, Barley (winter) (winter barley; [18]) | Plant response rating, Barley (winter) (winter barley; [23])
0: Cocklebur plant response rating (cocklebur; [3]) | Cocklebur plant response rating (cocklebur; [4]) | Plant response rating, Cocklebur (cocklebur; [5]) | Cocklebur plant response rating (cocklebur; [20]) | Cocklebur plant response rating (cocklebur; [21]) | Cocklebur plant response rating (cocklebur; [8]) | Plant response rating (0 to 10; 0 is no effect, 10 is complete control), Cocklebur (cocklebur; Rate 250 g/ha, Postemergence) | Cocklebur plant response rating (cocklebur; [22]) | Sugarbeets plant response rating (sugar beet; [3]) | Sugarbeets plant response rating (sugar beet; [4]) | Sugarbeets plant response rating (sugar beet; [20]) | Sugarbeets plant response rating (sugar beet; [8]) | S. Flatsedge plant response rating (smallflower flatsedge; [11]) | S. Flatsedge plant response rating (smallflower flatsedge; [12]) | S. Flatsedge plant response rating (smallflower flatsedge; [13]) | S. Flatsedge plant response rating (smallflower flatsedge; [14]) | Barnyardgrass plant response rating (bamyardgrass; [11]) | Barnyardgrass plant response rating (bamyardgrass; [12]) | Barnyardgrass plant response rating (bamyardgrass; [13]) | Barnyardgrass plant response rating (bamyardgrass; [14]) | Plant response rating, Blackgrass (blackgrass; [18]) | Blackgrass plant response rating (0 to 100 scale) (blackgrass) | Plant response rating, Green foxtail (green foxtail; [18]) | I. Ryegrass plant response rating (0 to 100 scale) (Italian ryegrass)
2: Sugarbeets plant response rating (sugar beet; [21]) | Plant response rating (0 to 10; 0 is no effect, 10 is complete control), Sugarbeets (sugar beet; Rate 250 g/ha, Postemergence) | Sugarbeets plant response rating (sugar beet; [22])
40: Plant response rating, Wheat (winter) (winter wheat [1]; [17]) | Plant response rating, Wild oat (wild oat; [23])
30: Plant response rating, Wheat (winter) (winter wheat [2]; [23])
20: Plant response rating, Wheat (winter) (winter wheat [1]; [15]) | Plant response rating, Green foxtail (green foxtail; [23]) | Plant response rating, Wild oat (wild oat; [18]) | Barley (winter) plant response rating (0 to 100 scale) (winter barley)
50: Plant response rating, Blackgrass (blackgrass; [23]) | Plant response rating, Wheat (winter) (winter wheat [2]; [18])

Cc1cccc(C)c1-n1c(=O)on(C(=O)N(C(C)C)C2C=CCCC2)c1=O (stereo not drawn) [Compound 273]
0: Cocklebur plant response rating (cocklebur; [3]) | Cocklebur plant response rating (cocklebur; [4]) | Plant response rating, Cocklebur (cocklebur; [5]) | Cocklebur plant response rating (cocklebur; [20]) | Cocklebur plant response rating (cocklebur; [7]) | Cocklebur plant response rating (cocklebur; [8]) | Plant response rating, Cocklebur (cocklebur; [9]) | Cocklebur plant response rating (cocklebur; [10]) | Sugarbeets plant response rating (sugar beet; [3]) | Sugarbeets plant response rating (sugar beet; [7]) | Sugarbeets plant response rating (sugar beet; [8]) | Plant response rating, Sugarbeets (sugar beet; [9]) | Sugarbeets plant response rating (sugar beet; [10]) | S. Flatsedge plant response rating (smallflower flatsedge; [11]) | S. Flatsedge plant response rating (smallflower flatsedge; [12]) | S. Flatsedge plant response rating (smallflower flatsedge; [13]) | S. Flatsedge plant response rating (smallflower flatsedge; [14]) | Barnyardgrass plant response rating (bamyardgrass; [11])
55: Blackgrass plant response rating (0 to 100 scale) (blackgrass) | Plant response rating, I. Ryegrass (Italian ryegrass; [23])
4: Barnyardgrass plant response rating (bamyardgrass; [12]) | Barnyardgrass plant response rating (bamyardgrass; [13])
70: Plant response rating, Wild oat (wild oat; [23]) | Barley (winter) plant response rating (0 to 100 scale) (winter barley)
65: Plant response rating, Barley (winter) (winter barley; [23])
7: Plant response rating, Sugarbeets (sugar beet; [5])
80: Plant response rating, Blackgrass (blackgrass; [23]) | Wild oat plant response rating (0 to 100 scale) (wild oat) | Plant response rating, Wild oat (wild oat; [24]) | Plant response rating, Barley (winter) (winter barley; [24])
100: Plant response rating, Blackgrass (blackgrass; [24])
20: Green foxtail plant response rating (0 to 100 scale) (green foxtail)
50: Plant response rating, Wheat (winter) (winter wheat [1]; [17]) | Wheat (winter) plant response rating (0 to 100 scale) (winter wheat [2])
6: Sugarbeets plant response rating (sugar beet; [4])
60: Plant response rating, Wheat (winter) (winter wheat [1]; Rate 1000 g/ha, 0 to 100 scale where 0 is no effect and 100 is complete control) | Plant response rating, Green foxtail (green foxtail; [24]) | Plant response rating, I. Ryegrass (Italian ryegrass; [24]) | Plant response rating, Wheat (winter) (winter wheat [2]; [23]) | Plant response rating, Wheat (winter) (winter wheat [2]; [24])
30: Wheat (winter) plant response rating (winter wheat [1]; [16]) | Plant response rating, Green foxtail (green foxtail; [23]) | I. Ryegrass plant response rating (0 to 100 scale) (Italian ryegrass)
3: Barnyardgrass plant response rating (bamyardgrass; [14])
